Marks after values point to notes of the source that are not given here.
Columns and labels:
[1] = test system: croton oil-induced ear dermatitis (edema); experiment: Croton oil-induced mouse ear dermatitis: edematous response
[2] = DPPH free-radical-scavenging assay; details: up to 100 μM
COX-2 = molecular target: T1, COX-2 (Ovis aries, UniProt P79208); experiment: COX-2 inhibition assay; type: biochemical, sheep; details: read-out: inhibition of COX-2
T1 sequence (P79208 17-603): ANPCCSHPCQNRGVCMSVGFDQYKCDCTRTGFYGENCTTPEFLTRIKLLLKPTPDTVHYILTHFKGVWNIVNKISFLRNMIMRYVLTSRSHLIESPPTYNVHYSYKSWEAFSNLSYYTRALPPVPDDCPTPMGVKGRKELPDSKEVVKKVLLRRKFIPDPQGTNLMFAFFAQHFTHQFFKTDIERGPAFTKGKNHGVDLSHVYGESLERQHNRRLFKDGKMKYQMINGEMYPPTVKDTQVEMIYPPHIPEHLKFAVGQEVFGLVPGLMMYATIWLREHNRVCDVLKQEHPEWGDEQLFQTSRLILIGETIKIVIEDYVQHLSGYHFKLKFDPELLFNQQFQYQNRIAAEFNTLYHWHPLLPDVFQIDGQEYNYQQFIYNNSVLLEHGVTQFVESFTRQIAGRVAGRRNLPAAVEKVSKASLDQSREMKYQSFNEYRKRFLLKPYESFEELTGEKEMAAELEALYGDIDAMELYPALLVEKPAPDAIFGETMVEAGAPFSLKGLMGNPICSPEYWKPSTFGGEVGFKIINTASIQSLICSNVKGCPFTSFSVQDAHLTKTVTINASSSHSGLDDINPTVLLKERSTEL

COX-1 = molecular target: T2, COX-1 (Ovis aries, UniProt P05979); experiment: COX-1 inhibition assay; type: biochemical, ram; details: read-out: inhibition of COX-1
T2 sequence (P05979 25-600): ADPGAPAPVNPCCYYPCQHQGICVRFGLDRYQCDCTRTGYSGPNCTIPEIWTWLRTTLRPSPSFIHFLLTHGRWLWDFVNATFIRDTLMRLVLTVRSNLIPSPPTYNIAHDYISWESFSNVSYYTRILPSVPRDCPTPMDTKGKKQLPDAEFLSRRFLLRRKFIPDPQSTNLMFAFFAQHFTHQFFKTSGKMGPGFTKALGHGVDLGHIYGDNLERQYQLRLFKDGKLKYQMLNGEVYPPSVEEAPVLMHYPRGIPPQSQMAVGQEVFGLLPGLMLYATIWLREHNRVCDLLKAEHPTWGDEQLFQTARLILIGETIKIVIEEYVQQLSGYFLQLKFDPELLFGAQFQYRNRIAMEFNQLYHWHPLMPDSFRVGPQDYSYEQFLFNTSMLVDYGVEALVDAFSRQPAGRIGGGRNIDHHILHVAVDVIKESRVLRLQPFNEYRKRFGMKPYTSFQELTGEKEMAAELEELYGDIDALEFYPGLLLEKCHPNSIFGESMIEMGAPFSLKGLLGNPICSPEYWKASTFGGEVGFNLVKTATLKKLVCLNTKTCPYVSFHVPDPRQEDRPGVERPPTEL

[3] = test system: croton oil-induced ear dermatitis (ear tissue histology); experiment: Histological analysis of ear tissue after croton oil dermatitis
5-LO = molecular target: T3, 5-LO (Homo sapiens, UniProt P09917); type: cell-based; details: read-out: inhibition of leukotriene formation
T3 sequence (P09917 1-674): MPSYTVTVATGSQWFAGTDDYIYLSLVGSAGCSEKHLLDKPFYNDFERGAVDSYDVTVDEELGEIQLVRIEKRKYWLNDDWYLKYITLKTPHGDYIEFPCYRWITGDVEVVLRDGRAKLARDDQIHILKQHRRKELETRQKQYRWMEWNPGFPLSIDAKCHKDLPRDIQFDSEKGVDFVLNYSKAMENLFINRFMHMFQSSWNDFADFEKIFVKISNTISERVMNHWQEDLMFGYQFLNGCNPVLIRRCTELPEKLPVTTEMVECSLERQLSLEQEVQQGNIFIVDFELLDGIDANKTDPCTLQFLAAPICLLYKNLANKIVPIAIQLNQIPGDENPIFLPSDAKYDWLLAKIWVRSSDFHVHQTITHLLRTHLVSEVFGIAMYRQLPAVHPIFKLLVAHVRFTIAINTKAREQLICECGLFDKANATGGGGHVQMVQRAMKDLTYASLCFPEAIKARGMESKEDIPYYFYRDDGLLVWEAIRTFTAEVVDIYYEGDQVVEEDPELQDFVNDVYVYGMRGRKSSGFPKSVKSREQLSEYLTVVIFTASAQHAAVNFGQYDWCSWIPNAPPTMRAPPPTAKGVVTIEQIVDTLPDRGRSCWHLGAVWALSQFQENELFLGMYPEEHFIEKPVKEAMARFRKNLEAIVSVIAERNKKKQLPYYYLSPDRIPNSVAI

[4] = dose giving 50% inhibition of edema, 6 h, topical
[5] = topical dose 0.10 μmol/cm^2, 6 h
[6] = topical dose 0.30 μmol/cm^2, 6 h
[7] = topical dose 1.00 μmol/cm^2, 6 h

SMILES	inhibition at 50 µM (COX-2) [%]	inhibition at 50 µM (COX-1) [%]	inhibition at 50 µM (5-LO) [%]	ID50 (μg/cm^2) [1, 4] [μg/cm^2]	edema (mg) mean ± SE [1, 5]	edema (mg) mean ± SE [1, 6]	edema (mg) mean ± SE [1, 7]	effect in DPPH assay [2]	histological finding in ear tissue ([3]; 0.04 μmol/cm^2, 3-48 h)	edema (mg) mean ± SE ([1]; topical dose 0.01 μmol/cm^2, 6 h)	edema (mg) mean ± SE ([1]; topical dose 0.03 μmol/cm^2, 6 h)	ID50 (μmol/cm^2) [1, 4] [μmol/cm^2]	histological finding in ear tissue ([3]; 0.4 μmol/cm^2, 3-48 h)
C[C@]12CCC(=O)C=C1CC[C@@H]1[C@@H]2[C@@H](O)C[C@@]2(C)[C@H]1CC[C@]2(O)C(=O)CO [hydrocortisone, reference compound]	–	–	–	11	1.6 ± 0.2 ^a mg	–	–	–	attenuation of all the vascular and cellular signs of inflammation	4.9 ± 0.3 ^a mg	3.1 ± 0.3 ^a mg	–	–
C/C=C/c1ccc2c(c1)C(CO)[C@@H](c1ccc(O)cc1)O2 (stereo in doubt) [compound 4, (2S,3S)-2,3-dihydro-3-hydroxymethyl-2-(4-hydroxyphenyl)-5-(E)-propenylbenzofuran]	–	–	–	118	5.7 ± 0.4 ^a mg	4.4 ± 0.3 ^a mg	1.7 ± 0.2 ^a mg	–	–	–	–	0.42	–
COc1cc(O)ccc1-c1cc2cc(CCCO)ccc2o1 [compound 1, 5-(3-hydroxypropyl)-2-(2-methoxy-4-hydroxyphenyl)benzofuran]	–	–	80.2 to 94.6	134	6.0 ± 0.3 ^a mg	4.7 ± 0.3 ^a mg	1.7 ± 0.1 ^a mg	–	–	–	–	–	–
C[C@@H]1[C@H](C)[C@@H](c2ccc(O)cc2)O[C@H]1c1ccc(O)cc1 [compound 3, meso-3,3′-didemethoxynectandrin B]	–	–	–	102	5.9 ± 0.3 ^a mg	3.3 ± 0.3 ^a mg	1.9 ± 0.2 ^a mg	–	–	–	–	–	–
C[C@@H]1[C@H](C)[C@@H](c2ccc(O)cc2)O[C@@H]1c1ccc(O)cc1 [compound 2, (−)-larreatricin]	–	–	–	131	5.6 ± 0.3 ^a mg	4.2 ± 0.4 ^a mg	2.3 ± 0.2 ^a mg	–	–	–	–	–	–
COc1ccc2c(c1)c(CC(=O)O)c(C)n2C(=O)c1ccc(Cl)cc1 [indomethacin, reference compound]	–	–	–	104	5.2 ± 0.4 ^a mg	3.4 ± 0.3 ^a mg	1.4 ± 0.2 ^a mg	–	–	–	–	–	reduced mast cell degranulation and leukocyte infiltration at all observation times
C/C=C/c1ccc2oc(-c3ccc(O)cc3O)cc2c1 [compound 6, 2-(2,4-dihydroxyphenyl)-5-(E)-propenylbenzofuran]	57.2 to 83.3	57.2 to 83.3	–	160	5.9 ± 0.3 ^a mg	4.9 ± 0.3 ^a mg	2.5 ± 0.3 ^a mg	–	–	–	–	–	–
COc1ccc(-c2cc3cc(CCCO)ccc3o2)c(O)c1 [compound 5, 2-(2-hydroxy-4-methoxyphenyl)-5-(3-hydroxypropyl)benzofuran]	–	–	80.2 to 94.6	107	5.2 ± 0.3 ^a mg	3.4 ± 0.2 ^a mg	2.3 ± 0.2 ^a mg	–	–	–	–	–	general reduction of these vascular and cellular changes due to inflammation
C/C=C/c1ccc2oc(-c3ccc(OC)cc3O)cc2c1 [compound 10, rataniaphenol I]	–	–	–	160	6.2 ± 0.3 mg	4.6 ± 0.3 ^a mg	2.5 ± 0.3 ^a mg	–	–	–	–	–	–

Second part, led by results:

inhibition at 50 µM (COX-2) [%]	inhibition at 50 µM (COX-1) [%]	inhibition at 50 µM (5-LO) [%]	SMILES	ID50 (μg/cm^2) [1, 4] [μg/cm^2]	edema (mg) mean ± SE [1, 5]	edema (mg) mean ± SE [1, 6]	edema (mg) mean ± SE [1, 7]	effect in DPPH assay [2]	histological finding in ear tissue ([3]; 0.04 μmol/cm^2, 3-48 h)	edema (mg) mean ± SE ([1]; topical dose 0.01 μmol/cm^2, 6 h)	edema (mg) mean ± SE ([1]; topical dose 0.03 μmol/cm^2, 6 h)	ID50 (μmol/cm^2) [1, 4] [μmol/cm^2]	histological finding in ear tissue ([3]; 0.4 μmol/cm^2, 3-48 h)
57.2 to 83.3	57.2 to 83.3	–	C/C=C/c1ccc2oc(-c3ccc(O)cc3)cc2c1 [compound 8, 2-(4-hydroxyphenyl)-5-(E)-propenylbenzofuran]	110	5.9 ± 0.3 ^a mg	4.5 ± 0.3 ^a mg	1.8 ± 0.3 ^a mg	no effect	–	–	–	–	–
57.2 to 83.3	57.2 to 83.3	–	C/C=C/c1ccc2oc(-c3ccc(O)cc3)c(C)c2c1 [compound 11, rataniaphenol II]	106	6.0 ± 0.4 mg	4.0 ± 0.2 ^a mg	1.7 ± 0.2 ^a mg	no effect	–	–	–	–	–
57.2 to 83.3	57.2 to 83.3	–	C/C=C/c1ccc2oc(-c3ccc(O)cc3OC)cc2c1 [compound 9, rataniaphenol III]	134	6.1 ± 0.2 mg	4.4 ± 0.3 ^a mg	2.1 ± 0.3 ^a mg	–	–	–	–	–	–
–	–	80.2 to 94.6	C/C=C/c1ccc2c(c1)[C@@H](C)[C@H](c1ccc(O)cc1)O2 [compound 7, (+)-conocarpan]	82	5.2 ± 0.4 ^a mg	3.8 ± 0.2 ^a mg	1.3 ± 0.1 ^a mg	no effect	–	–	–	–	general reduction of these vascular and cellular changes due to inflammation
